pIC50: −log10 of the molar value.
Columns and labels:
[1] = target: T1, full-length beta-Catenin (Uniprot ID P35222) (Homo sapiens, UniProt P35222); experiment: Fluorescence polarization IC50 (beta-catenin / 5FAM-TCF4 10-53 competition); type: binding; conditions: fluorescence polarization; read-out: beta-Catenin FP IC50
T1 construct: 10 nM full-length beta-Catenin (Uniprot ID P35222)
T1 sequence (P35222 1-781): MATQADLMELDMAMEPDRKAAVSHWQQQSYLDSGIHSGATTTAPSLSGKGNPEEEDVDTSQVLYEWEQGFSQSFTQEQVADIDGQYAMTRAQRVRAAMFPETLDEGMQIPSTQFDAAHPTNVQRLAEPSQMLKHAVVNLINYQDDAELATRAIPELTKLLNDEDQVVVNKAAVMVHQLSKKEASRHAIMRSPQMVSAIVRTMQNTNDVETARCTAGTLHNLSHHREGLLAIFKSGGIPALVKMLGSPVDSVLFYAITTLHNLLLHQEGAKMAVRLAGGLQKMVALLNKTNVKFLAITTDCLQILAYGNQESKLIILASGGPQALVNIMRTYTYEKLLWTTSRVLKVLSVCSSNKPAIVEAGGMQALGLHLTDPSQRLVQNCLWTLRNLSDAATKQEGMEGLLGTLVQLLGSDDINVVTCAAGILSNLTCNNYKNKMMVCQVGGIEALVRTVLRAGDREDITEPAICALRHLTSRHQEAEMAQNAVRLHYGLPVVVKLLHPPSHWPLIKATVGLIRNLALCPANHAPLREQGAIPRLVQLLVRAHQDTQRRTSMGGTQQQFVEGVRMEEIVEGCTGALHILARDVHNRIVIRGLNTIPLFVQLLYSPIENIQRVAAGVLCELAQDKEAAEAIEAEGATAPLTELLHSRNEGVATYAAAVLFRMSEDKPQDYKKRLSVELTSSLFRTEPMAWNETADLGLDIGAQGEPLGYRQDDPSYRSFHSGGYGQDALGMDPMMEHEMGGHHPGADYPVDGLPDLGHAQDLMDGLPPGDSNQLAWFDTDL

[2] = target: T2, beta-catenin/TCF4 engagement (Homo sapiens, UniProt P35222); experiment: Nano-BRET target engagement assay (B-cat-Halo & TCF4-Luc in HEK293 cells); type: cell-based; conditions: absolute IC50; read-out: NanoBRET Abs IC50
T2 construct: expressed in transfected cells; host or cells: HEK293
T2 sequence (P35222 1-781): T1 sequence (P35222 1-781)

pIC50 [1] | pIC50 [2] | SMILES
7.96 | 5.30 | CC(=O)N1CCC[C@]12CC=CCCCC1(CCCC=CCCCOC(=O)N3CC[C@@](C(=O)N[C@@H](Cc4ccsc4)C(=O)N[C@@H](Cc4ccc(Cl)cc4)C(=O)N[C@@H](C)C(N)=O)(C3)NC(=O)[C@H](C(C)C)NC(=O)[C@H](Cc3ccccc3)NC(=O)[C@H](C)NC(=O)[C@H](CCC(N)=O)NC(=O)[C@H](Cc3cccc(C(=O)O)c3)NC(=O)[C@H](CC(=O)O)NC1=O)NC(=O)[C@H](CC(C)(C)C)NC(=O)[C@H](CC(=O)O)NC2=O (stereo partly drawn) [I-2221, Ac-PL3-Asp-Npg-B5-Asp-3COOHF-Gln-Ala-Phe-Val-PyrS2-3Thi-4C1F-Ala-NH2]
7.08 | 4.93 | CC(=O)N1CCC[C@]12CC=CCCCC1(CCCC=CCCCOC(=O)N3CC[C@@](C(=O)N[C@@H](Cc4ccccc4C(F)(F)F)C(=O)N[C@@H](Cc4ccc(Cl)cc4)C(=O)N[C@@H](CO)C(N)=O)(C3)NC(=O)[C@H](CC(C)C)NC(=O)[C@H](Cc3ccccc3)NC(=O)[C@H](C)NC(=O)[C@H](C)NC(=O)[C@H](Cc3cccc(C(=O)O)c3)NC(=O)[C@H](CC(=O)O)NC1=O)NC(=O)[C@H](CC(C)(C)C)NC(=O)[C@H](CC(=O)O)NC2=O (stereo partly drawn) [I-2222, Ac-PL3-Asp-Npg-B5-Asp-3COOHF-Ala-Ala-Phe-Leu-PyrS2-2F3MeF-4C1F-Ser-NH2]
7.30 | 5.05 | CC(=O)N1CCC[C@]12CC=CCCCC1(CCCC=CCCCOC(=O)N3CC[C@@](C(=O)N[C@@H](Cc4ccccc4C(F)(F)F)C(=O)N[C@@H](Cc4ccc(Cl)cc4)C(=O)N[C@@H](C)C(N)=O)(C3)NC(=O)[C@H](CC(C)C)NC(=O)[C@H](Cc3ccccc3)NC(=O)[C@H](C)NC(=O)[C@H](CCC(N)=O)NC(=O)[C@H](Cc3cccc(C(=O)O)c3)NC(=O)[C@H](CC(=O)O)NC1=O)NC(=O)[C@H](CC(C)(C)C)NC(=O)[C@H](CC(=O)O)NC2=O (stereo partly drawn) [I-2223, Ac-PL3-Asp-Npg-B5-Asp-3COOHF-Gln-Ala-Phe-Leu-PyrS2-2F3MeF-4C1F-Ala-NH2]
7.85 | 4.85 | CC(=O)N1CCC[C@]12CC=CCCCC1(CCCC=CCCCOC(=O)N3CC[C@@](C(=O)N[C@@H](Cc4ccsc4)C(=O)N[C@@H](Cc4cccc(Cl)c4)C(=O)N[C@@H](CCC(N)=O)C(N)=O)(C3)NC(=O)[C@H](CC(C)C)NC(=O)[C@H](Cc3ccccc3)NC(=O)[C@H](C)NC(=O)[C@H](C)NC(=O)[C@H](Cc3cccc(C(=O)O)c3)NC(=O)[C@H](CC(=O)O)NC1=O)NC(=O)[C@H](CC(C)(C)C)NC(=O)[C@H](CC(=O)O)NC2=O (stereo partly drawn) [I-2224, Ac-PL3-Asp-Npg-B5-Asp-3COOHF-Ala-Ala-Phe-Leu-PyrS2-3Thi-3C1F-Gln-NH2]
7.89 | 5.11 | CC(=O)N1CCC[C@]12CC=CCCCC1(CCCC=CCCCOC(=O)N3CC[C@@](C(=O)N[C@@H](Cc4ccsc4)C(=O)N[C@@H](Cc4cccc(Cl)c4)C(=O)N[C@@H](C)C(N)=O)(C3)NC(=O)[C@H](C(C)C)NC(=O)[C@H](Cc3ccccc3)NC(=O)[C@H](C)NC(=O)[C@H](CCC(N)=O)NC(=O)[C@H](Cc3cccc(C(=O)O)c3)NC(=O)[C@H](CC(=O)O)NC1=O)NC(=O)[C@H](CC(C)(C)C)NC(=O)[C@H](CC(=O)O)NC2=O (stereo partly drawn) [I-2225, Ac-PL3-Asp-Npg-B5-Asp-3COOHF-Gln-Ala-Phe-Val-PyrS2-3Thi-3C1F-Ala-NH2]
7.01 | 4.97 | CC(=O)N1CCC[C@]12CC=CCCCC1(CCCC=CCCCOC(=O)N3CC[C@@](C(=O)N[C@@H](Cc4ccccc4C(F)(F)F)C(=O)N[C@@H](Cc4cccc(Cl)c4)C(=O)N[C@@H](CO)C(N)=O)(C3)NC(=O)[C@H](CC(C)C)NC(=O)[C@H](Cc3ccccc3)NC(=O)[C@H](C)NC(=O)[C@H](C)NC(=O)[C@H](Cc3cccc(C(=O)O)c3)NC(=O)[C@H](CC(=O)O)NC1=O)NC(=O)[C@H](CC(C)(C)C)NC(=O)[C@H](CC(=O)O)NC2=O (stereo partly drawn) [I-2226, Ac-PL3-Asp-Npg-B5-Asp-3COOHF-Ala-Ala-Phe-Leu-PyrS2-2F3MeF-3C1F-Ser-NH2]
7.33 | 5.20 | CC(=O)N1CCC[C@]12CC=CCCCC1(CCCC=CCCCOC(=O)N3CC[C@@](C(=O)N[C@@H](Cc4ccccc4C(F)(F)F)C(=O)N[C@@H](Cc4cccc(Cl)c4)C(=O)N[C@@H](C)C(N)=O)(C3)NC(=O)[C@H](CC(C)C)NC(=O)[C@H](Cc3ccccc3)NC(=O)[C@H](C)NC(=O)[C@H](CCC(N)=O)NC(=O)[C@H](Cc3cccc(C(=O)O)c3)NC(=O)[C@H](CC(=O)O)NC1=O)NC(=O)[C@H](CC(C)(C)C)NC(=O)[C@H](CC(=O)O)NC2=O (stereo partly drawn) [I-2227, Ac-PL3-Asp-Npg-B5-Asp-3COOHF-Gln-Ala-Phe-Leu-PyrS2-2F3MeF-3C1F-Ala-NH2]
7.85 | < 4.70 | CC(=O)N1CCC[C@]12CC=CCCCC1(CCCC=CCCCOC(=O)N3CC[C@@](C(=O)N[C@@H](Cc4ccsc4)C(=O)N[C@@H](Cc4csc5ccccc45)C(=O)N[C@@H](CCC(N)=O)C(N)=O)(C3)NC(=O)[C@H](CC(C)C)NC(=O)[C@H](Cc3ccccc3)NC(=O)[C@H](C)NC(=O)[C@H](C)NC(=O)[C@H](CN(CC(=O)O)C(=O)CCCN(C)C)NC(=O)[C@H](CC(=O)O)NC1=O)NC(=O)[C@H](CC(C)(C)C)NC(=O)[C@H](CC(=O)O)NC2=O (stereo partly drawn) [I-2233, Ac-PL3-Asp-Npg-B5-Asp-[NdiMeButC]GA-Ala-Ala-Phe-Leu-PyrS2-3Thi-BztA-Gln-NH2]
7.66 | < 4.70 | CC(=O)N1CCC[C@]12CC=CCCCC1(CCCC=CCCCOC(=O)N3CC[C@@](C(=O)N[C@@H](Cc4ccsc4)C(=O)N[C@@H](Cc4csc5ccccc45)C(=O)N[C@@H](CCC(N)=O)C(N)=O)(C3)NC(=O)[C@H](CC(C)C)NC(=O)[C@H](Cc3ccccc3)NC(=O)[C@H](C)NC(=O)[C@H](C)NC(=O)[C@H](CN(CC(=O)O)C(=O)CCN(C)C)NC(=O)[C@H](CC(=O)O)NC1=O)NC(=O)[C@H](CC(C)(C)C)NC(=O)[C@H](CC(=O)O)NC2=O (stereo partly drawn) [I-2234, Ac-PL3-Asp-Npg-B5-Asp-[Me2NPr]GA-Ala-Ala-Phe-Leu-PyrS2-3Thi-BztA-Gln-NH2]
7.40 | < 4.70 | CC(=O)N1CCC[C@]12CC=CCCCC1(CCCC=CCCCOC(=O)N3CC[C@@](C(=O)N[C@@H](Cc4ccsc4)C(=O)N[C@@H](Cc4csc5ccccc45)C(=O)N[C@@H](CCC(N)=O)C(N)=O)(C3)NC(=O)[C@H](CC(C)C)NC(=O)[C@H](Cc3ccccc3)NC(=O)[C@H](C)NC(=O)[C@H](C)NC(=O)[C@H](CN(CC(=O)O)C(=O)C3CCN(C)CC3)NC(=O)[C@H](CC(=O)O)NC1=O)NC(=O)[C@H](CC(C)(C)C)NC(=O)[C@H](CC(=O)O)NC2=O (stereo partly drawn) [I-2235, Ac-PL3-Asp-Npg-B5-Asp-[4AcMePip]GA-Ala-Ala-Phe-Leu-PyrS2-3Thi-BztA-Gln-NH2]
7.64 | 4.82 | CC(=O)N1CCC[C@]12CC=CCCCC1(CCCC=CCCCOC(=O)N3CC[C@@](C(=O)N[C@@H](Cc4ccsc4)C(=O)N[C@@H](Cc4csc5ccccc45)C(=O)N[C@@H](CCC(N)=O)C(N)=O)(C3)NC(=O)[C@H](CC(C)C)NC(=O)[C@H](Cc3ccccc3)NC(=O)[C@H](C)NC(=O)[C@H](C)NC(=O)[C@H](CN(CC(=O)O)C(=O)Cc3ccc(C(F)(F)F)cc3)NC(=O)[C@H](CC(=O)O)NC1=O)NC(=O)[C@H](CC(C)(C)C)NC(=O)[C@H](CC(=O)O)NC2=O (stereo partly drawn) [I-2236, Ac-PL3-Asp-Npg-B5-Asp-[4CF3PhAc]GA-Ala-Ala-Phe-Leu-PyrS2-3Thi-BztA-Gln-NH2]
8.30 | 4.61 | CC(=O)N1CCC[C@]12CC=CCCCC1(CCCC=CCCCOC(=O)N3CC[C@@](C(=O)N[C@@H](Cc4ccsc4)C(=O)N[C@@H](Cc4csc5ccccc45)C(=O)N[C@@H](CCC(N)=O)C(N)=O)(C3)NC(=O)[C@H](CC(C)C)NC(=O)[C@H](Cc3ccccc3)NC(=O)[C@H](C)NC(=O)[C@H](C)NC(=O)[C@H](CN(CC(=O)O)C(=O)c3ccccn3)NC(=O)[C@H](CC(=O)O)NC1=O)NC(=O)[C@H](CC(C)(C)C)NC(=O)[C@H](CC(=O)O)NC2=O (stereo partly drawn) [I-2237, Ac-PL3-Asp-Npg-B5-Asp-[Pic]GA-Ala-Ala-Phe-Leu-PyrS2-3Thi-BztA-Gln-NH2]
8.00 | 4.50 | CC(=O)N1CCC[C@]12CC=CCCCC1(CCCC=CCCCOC(=O)N3CC[C@@](C(=O)N[C@@H](Cc4ccsc4)C(=O)N[C@@H](Cc4csc5ccccc45)C(=O)N[C@@H](CCC(N)=O)C(N)=O)(C3)NC(=O)[C@H](CC(C)C)NC(=O)[C@H](Cc3ccccc3)NC(=O)[C@H](C)NC(=O)[C@H](C)NC(=O)[C@H](CN(CC(=O)O)C(=O)CN3CCOCC3)NC(=O)[C@H](CC(=O)O)NC1=O)NC(=O)[C@H](CC(C)(C)C)NC(=O)[C@H](CC(=O)O)NC2=O (stereo partly drawn) [I-2239, Ac-PL3-Asp-Npg-B5-Asp-[MorphAc]GA-Ala-Ala-Phe-Leu-PyrS2-3Thi-BztA-Gln-NH2]
